COC(=O)[C@H](N)c1ccc(O)cc1
Conditions	solubility (mole fraction)
in ethanol, 283.15 K	0.00129
in ethanol, 288.13 K	0.00179
in ethanol, 293.15 K	0.0024
in ethanol, 298.17 K	0.00318
in ethanol, 303.15 K	0.00411
in ethanol, 308.2 K	0.00522
in ethanol, 313.15 K	0.00652
in ethanol, 318.1 K	0.008
in ethanol, 323.15 K	0.00968
in ethyl acetate, 283.15 K	0.000154
in ethyl acetate, 288.17 K	0.00029
in ethyl acetate, 293.15 K	0.000479
in ethyl acetate, 298.15 K	0.000761
in ethyl acetate, 303.16 K	0.00113
in ethyl acetate, 308.15 K	0.00158
in ethyl acetate, 313.15 K	0.00209
in ethyl acetate, 318.18 K	0.00261
in ethyl acetate, 323.15 K	0.00311
in isopropanol, 283.15 K	0.000167
in isopropanol, 288.2 K	0.000327
in isopropanol, 293.14 K	0.000576
in isopropanol, 298.15 K	0.000976
in isopropanol, 303.15 K	0.00163
in isopropanol, 308.2 K	0.00258
in isopropanol, 313.2 K	0.00368
in isopropanol, 318.15 K	0.00517
in isopropanol, 323.15 K	0.00677
in isopropyl acetate, 283.17 K	4.68e-05
in isopropyl acetate, 288.15 K	8.53e-05
in isopropyl acetate, 293.14 K	0.000146
in isopropyl acetate, 298.15 K	0.000237
in isopropyl acetate, 303.13 K	0.00037
in isopropyl acetate, 308.15 K	0.000555
in isopropyl acetate, 313.15 K	0.0008
in isopropyl acetate, 318.15 K	0.00111
in isopropyl acetate, 323.15 K	0.00149
in methanol, 283.1 K	0.00221
in methanol, 288.15 K	0.00273
in methanol, 293.24 K	0.00338
in methanol, 298.1 K	0.00415
in methanol, 303.15 K	0.00505
in methanol, 308.2 K	0.00611
in methanol, 313.2 K	0.00732
in methanol, 318.15 K	0.00872
in methanol, 323.2 K	0.0103
in methyl acetate, 283.12 K	0.000417
in methyl acetate, 288.2 K	0.000578
in methyl acetate, 293.17 K	0.000914
in methyl acetate, 298.14 K	0.00136
in methyl acetate, 303.15 K	0.0019
in methyl acetate, 308.15 K	0.00253
in methyl acetate, 313.15 K	0.0032
in methyl acetate, 318.15 K	0.00385
in methyl acetate, 323.15 K	0.00444
in n-butanol, 283.15 K	0.000489
in n-butanol, 288.2 K	0.000737
in n-butanol, 293.17 K	0.00114
in n-butanol, 298.18 K	0.00164
in n-butanol, 303.15 K	0.00224
in n-butanol, 308.2 K	0.00308
in n-butanol, 313.15 K	0.00418
in n-butanol, 318.15 K	0.00561
in n-butanol, 323.15 K	0.00733
in n-butyl acetate, 283.1 K	5.67e-05
in n-butyl acetate, 288.15 K	8.11e-05
in n-butyl acetate, 293.15 K	0.000116
in n-butyl acetate, 298.17 K	0.000165
in n-butyl acetate, 303.15 K	0.000233
in n-butyl acetate, 308.15 K	0.000326
in n-butyl acetate, 313.14 K	0.000456
in n-butyl acetate, 318.15 K	0.000626
in n-butyl acetate, 323.12 K	0.000873
in n-pentanol, 283.14 K	6.94e-05
in n-pentanol, 288.2 K	0.000156
in n-pentanol, 293.15 K	0.000322
in n-pentanol, 298.15 K	0.000606
in n-pentanol, 303.15 K	0.00107
in n-pentanol, 308.14 K	0.00177
in n-pentanol, 313.15 K	0.00273
in n-pentanol, 318.15 K	0.00399
in n-pentanol, 323.15 K	0.00549
in n-propanol, 283.13 K	0.000939
in n-propanol, 288.2 K	0.00127
in n-propanol, 293.15 K	0.00173
in n-propanol, 298.13 K	0.00226
in n-propanol, 303.15 K	0.00295
in n-propanol, 308.15 K	0.00382
in n-propanol, 313.15 K	0.0049
in n-propanol, 318.2 K	0.00624
in n-propanol, 323.15 K	0.00787
in n-propyl acetate, 283.15 K	6.95e-05
in n-propyl acetate, 288.14 K	0.000135
in n-propyl acetate, 293.17 K	0.000242
in n-propyl acetate, 298.2 K	0.000415
in n-propyl acetate, 303.15 K	0.000663
in n-propyl acetate, 308.15 K	0.00102
in n-propyl acetate, 313.15 K	0.0015
in n-propyl acetate, 318.15 K	0.00203
in n-propyl acetate, 323.15 K	0.00275
in water, 283.13 K	1.9e-05
in water, 288.16 K	2.8e-05
in water, 293.15 K	4.81e-05
in water, 298.15 K	7.86e-05
in water, 303.18 K	0.000123
in water, 308.15 K	0.000177
in water, 313.2 K	0.000232
in water, 318.15 K	0.0003
in water, 323.15 K	0.00037

From BigSolDB 2.1
